Source: patent US12521415B2, “Accelerating repair of mucosal injury using gold(III) compounds” (University of Kentucky Research Foundation, priority 2020, dated 2026)

Experiments:
[1] = Toxicity (weight change) in AuPhos-treated mice over time; format: in vivo, mouse
From the text: (§1) FIGS. 8A-8J present properties of AuPhos. FIG. 8A includes a chemical structure of AuPhos. FIG. 8B includes extrapolated AuPhos-induced OCR (complex I) in liver mitochondria. […] FIG. 8E provides weight change in AuPhos-treated mice over time. FIG. 8F presents stability of AuPhos in PBS and DMEM. FIG. 8G presents stability of AuPhos in PBS and DMEM. FIG. 8H includes an AuPhos-induced Heat map of DEG (left Panel), obtained using log 2(Fold Change) and p-Value <0.00001 thresholds in MDA-MB-231(107) cells (n=2), and the top six hits of KEGG analysis (right panel). FIG. 8I presents biodistribution and pharmacokinetics of AuPhos in different tissues; Colon, Small bowel, Lung, Kidney, Spleen, Liver, Heart and Blood after single dose (oral, 25 mg/kg) administration of AuPhos at 6 h, 12 h and 24 h. FIG. 8J presents biodistribution and pharmacokinetics of AuPhos in different tissues stool after single dose (oral, 25 mg/kg) administration of AuPhos at 6 h, 12 h and 24 h.
This observation was mitochondrial complex I-driven when different substrates, i.e. pyruvate and succinate, were used to measure the OCR. Transcriptomics was used to study global changes in mRNA in response to a 12 h exposure of AuPhos to MDA-MB-231 cells (FIG. 8H).

[2] = test system: TNF-stimulated colonic NCM460 cells; experiment: Western blot of TNF-stimulated NCM460 cells treated with AuPhos (mitochondrial biogenesis, PI3K markers); format: cell-based, human; details: WB
Method: FIG. 14A Normal human colonic biopsies were incubated a^t 4° C. with AuPhos×3 hrs and membrane fractions examined for mitochondrial complexes expression by WB. FIG. 14B TNF-stimulated colonic NCM460 cells were treated overnight with AuPhos at concentrations indicated. WB for markers indicated are shown in nuclear and membranous protein fractions. FIG. 14C Markers of PI3K pathway were probed in nuclear and cytosolic fractions of AuPhos-treated NCM460 cells (treated with TNF). FIG. 14D NCM460 cell were treated overnight with TNF and probed for the ROS-induced P-PTEN, which inactivates PTEN and activates PI3K.
The effects of AuPhos in Px-accelerated IL-10KO mice by beginning treatment on D21 (7D after cessation of Px) when colitis is severe is shown in FIG. 13A. AuPhos-induced mitochondrial biogenesis and PI3K signaling. To examine the effect of AuPhos on mitochondrial biogenesis in human colonic IEC, fresh biopsies were cultured with a dose range of AuPhos and examined (after 3 h) for mitochondrial complex levels. […] Lastly, TNF stimulates p-PTEN in NCM460 cells indicative of ROS-induced PTEN inactivation as published. It is likely that induction of mtROS by AuPhos enhances PI3K signaling which promotes mitochondrial biogenesis (PGC1α and TFAM) as well as cooperate with Wnt to enhance β-catenin signaling in fissioning crypts.

[3] = Biodistribution and pharmacokinetics of AuPhos in tissues and stool after single oral dose; format: in vivo, mouse; details: single oral 25 mg/kg dose
From the text: as §1
FIGS. 16A-16E illustrate the pharmacokinetics and effects of AuPhos on mitochondrial bioenergetics. FIG. 16A. Biodistribution and pharmacokinetics of AuPhos in different tissues; Colon, Small bowel, Spleen, Liver after a single intragastric (i.g.) gavage (25 mg/kg) with measurements of AuPhos tissue levels (graphite furnace atomic absorption spectroscopy) at times indicated. FIG. 16B. […]

[4] = test system: serum IL-6; experiment: Anti-CD3 mAb-induced serum IL-6 in control and AuPhos-treated mice; format: in vivo, mouse; details: 25 mg/kg i.g. every 3d x2; anti-CD3 mAb injected
Method: FIG. 12A RT-qPCR analysis of cytokines and chemokine genes in AuPhos vs. controls at 9 and 13 days after DSS initiation. FIG. 12B RT-qPCR analysis of cytokines and chemokine genes in AuPhos vs. controls at 9 and 13 days after DSS initiation. FIG. 12C Quantitative RT-PCR analysis of inflammasome markers in D13 DSS mice. Statistical significance was determined using multiple t-test with Holm-Sidak's multiple method. FIG. 12D Serum IL-6 in AuPhos treated (n=4) and control mice, with or without anti-CD3 antibody. ★<0.05; ★★<0.01.
Findings in FIG. 9A-9D indicate that AuPhos attenuates tissue inflammation and enhances mucosal healing in DSS colitis mice. To interrogate the effects of AuPhos on Th1 and Treg cytokine production as well as chemokine and inflammasome mediators, mRNA from mice at time points indicated (as in FIG. 9A-9D). […] To test the question of whether AuPhos affected leukocytes directly, control and AuPhos-treated (25 mg/kg i.g. dosed every 3d×2) were injected with anti-CD3 mAb (antiTCR mAb). It is known that CD3 mAb induces a cytokine storm in the periphery and intestine.

[Cl][Au]1([c]2ccccc2Cc2ccccn2)[P](c2ccccc2)(c2ccccc2)c2ccccc2[P]1(c1ccccc1)c1ccccc1 [AuPhos]
liver toxicity ([1]; mice, data not shown): not observed | toxicity in mice ([1]; over 20 days): no toxicity | markers of PI3K [pAkt and pS6 kinase (pS6)] ([2]; NCM460 cells treated with TNF): induced markers of PI3K | PGC1a and TFAM protein ([2]; NCM460 cells, TNF-stimulated, overnight AuPhos): induces PGC1a and TFAM | nuclear pp-catenin5 ([2]; NCM460 cells): induction of nuclear pp-catenin5 | evacuation in the stool [3]: ≤ 12 h | tissue biodistribution [3]: clear accumulation in the small and large bowel tissues | anti-CD3 induced increases in serum IL-6 [4]: did not affect
